# From patent US20150259344A1, “IMIDAZOLE DERIVATIVE” (DAINIPPON SUMITOMO PHARMA CO., LTD., priority 2012, published 2015)
# Target: T1, human α7 nAChR (Homo sapiens, UniProt P36544)
# T1 construct: expressed in transfected cells
# Assay: Evaluation of PAM activity with human α7 nACh receptor stably expressing cells (aequorin luminescence, FDSS7000)
# Format: cell-based
# Conditions: 1 μM test compound (values marked *, footnote of Table 25); ACh at EC20; ratio of RLU (Max-Min) to control wells; read-out: α7PAM (%) @1 μM
# Outline: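 Human α7 nAChR stable cells loaded with 4 μM Viviren (final) for 4 h at room temperature in the dark. Compounds in Hanks/20 mM HEPES/0.2% BSA were added and luminescence recorded on FDSS7000. PAM activity = RLU (Max-Min) ratio of test wells to control wells.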
# T1 sequence (P36544 23-502): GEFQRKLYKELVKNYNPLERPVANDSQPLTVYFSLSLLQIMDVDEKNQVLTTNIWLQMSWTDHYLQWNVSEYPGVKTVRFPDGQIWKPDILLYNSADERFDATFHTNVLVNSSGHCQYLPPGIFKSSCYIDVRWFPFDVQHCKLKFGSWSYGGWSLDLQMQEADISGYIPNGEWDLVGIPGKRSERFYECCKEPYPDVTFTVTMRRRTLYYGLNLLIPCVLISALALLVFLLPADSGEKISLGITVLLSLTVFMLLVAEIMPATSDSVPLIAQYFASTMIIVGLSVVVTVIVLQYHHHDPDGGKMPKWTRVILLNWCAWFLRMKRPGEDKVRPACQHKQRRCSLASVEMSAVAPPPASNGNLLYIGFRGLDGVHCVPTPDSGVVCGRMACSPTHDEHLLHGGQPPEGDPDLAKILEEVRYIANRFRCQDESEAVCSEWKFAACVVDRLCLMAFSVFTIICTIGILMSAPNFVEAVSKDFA
row,activity at 1 µM [%],Compound
1,118,O=C(NC1CCOCC1)[C@H]1CC[C@@H](n2cnc(-c3cccc(F)c3)c2)CC1 [Example 355]
2,444,CC(C)(F)C(=O)N[C@H]1CC[C@@H](n2cnc(-c3ccc(F)c(OC(F)(F)F)c3)c2)CC1 [Example 295]
3,274,COc1cc(-c2ncn([C@H]3CC[C@@H](NC(=O)C4CCC4)CC3)c2Cl)c(Cl)cc1F [Example 192]
4,364,COc1cc(-c2ncn([C@H]3CC[C@@H](NC(=O)C4CCC4)CC3)c2Cl)ccc1F [Example 191]
5,179,CC(C)(F)C(=O)N[C@H]1CC[C@@H](n2cnc(-c3cc(Cl)c(F)cc3F)c2)CC1 [Example 318]

row,Compound,activity at 1 µM [%]
1,O=C(NC1CCCCC1)N1[C@@H]2CC[C@H]1C[C@@H](n1cnc(-c3ccc(F)cc3F)c1)C2 [Example 385],218
2,O=C(NC1CCC(F)(F)CC1)N1[C@@H]2CC[C@H]1C[C@@H](n1cnc(-c3cc(F)ccc3F)c1)C2 [Example 388],335

# Same assay, conditions: 10 μM test compound; ACh at EC20; ratio of RLU (Max-Min) to control wells; read-out: α7PAM (%) @10 μM
row,Compound,activity at 10 µM [%]
1,COC1CCC(NC(=O)N2CCC(n3cnc(-c4ccccc4)c3)CC2)CC1 (centres unmarked) [Example 40],129
2,O=C(NC1CCOCC1)[C@H]1CC[C@@H](n2cnc(-c3cccc(F)c3)c2Cl)CC1 [Example 359],581
3,O=C(NC1CCC(F)(F)CC1)N1CCC(n2cnc(-c3ccccc3)c2)CC1 [Example 39],823
4,CC(C)(F)C(=O)N[C@H]1CC[C@@H](n2cnc(-c3ccccc3OC(F)(F)F)c2)CC1 [Example 311],290
5,"O=C(C1CCC(F)(F)CC1)N1CCC(n2cnc(-c3ccccc3)c2)CC1 [Example 6, [4-(4-Phenyl-1H-imidazol-1-yl)piperidin-1-yl](4,4-difluorocyclohexyl)methanone]",292
6,O=C(N[C@H]1CC[C@@H](n2cnc(-c3ccccc3)c2Cl)CC1)C1CCCCC1 [Example 168],829
7,O=C(NC1CCCCC1)N1CCC(n2cnc(-c3c(F)cccc3F)c2)CC1 [Example 10],597
8,CCOc1ccc(-c2cn(C3CCN(C(=O)NC4CC5CCC4C5)CC3)cn2)cc1 (centres unmarked) [Example 58],318
9,CC(C)(F)C(=O)N[C@H]1CC[C@@H](n2cnc(-c3c(F)cccc3F)c2)CC1 [Example 315],501
10,O=C(NC1CCCCC1)N1[C@@H]2CC[C@H]1C[C@H](n1cnc(-c3ccc(F)cc3F)c1)C2 [Example 408],140
11,O=C(C1CCC(F)(F)CC1)N1[C@@H]2CC[C@H]1C[C@@H](n1cnc(-c3cccc(F)c3F)c1Cl)C2 [Example 439],813
12,O=C(N[C@H]1CC[C@@H](n2cnc(-c3ccc(C(F)(F)F)cc3)c2Cl)CC1)C1CCC1 [Example 196],498
13,CC(C)(F)C(=O)N[C@H]1CC[C@@H](n2cnc(-c3ccc(F)c(F)c3F)c2)CC1 [Example 312],662
14,O=C(NC1CCCCC1)N1CCC(n2cnc(-c3cccnc3)c2)CC1 [Example 133],101
15,O=C(N[C@H]1CC[C@H](n2cnc(-c3ccccc3)c2Cl)CC1)C1CCCCC1 [Example 206],102
16,O=C(NC1CCCCC1)N1[C@@H]2CC[C@H]1C[C@@H](n1cnc(-c3ccc(F)cc3)c1Cl)C2 [Example 390],683
17,O=C(C1CCC(F)(F)CC1)N1CCC(n2cnc(-c3ccc(OC(F)F)cc3)c2)CC1 [Example 146],572
18,O=C(NC1CCC(F)(F)CC1)N1[C@@H]2CC[C@H]1C[C@@H](n1cnc(-c3cccc(F)c3F)c1Cl)C2 [Example 398],607

row,Compound,activity at 10 µM [%]
1,O=C(NC1CCC(F)(F)CC1)N1[C@@H]2CC[C@H]1C[C@H](n1cnc(-c3cc(F)ccc3F)c1)C2 [Example 412],423
2,N#Cc1c(-c2ccc(F)cc2F)ncn1[C@@H]1C[C@H]2CC[C@@H](C1)N2C(=O)NC1CCC(F)(F)CC1 [Example 422],131
3,CC(C)(C)C(=O)N[C@H]1CC[C@@H](n2cnc(-c3ccc(Cl)cc3)c2)CC1 [Example 281],411
4,O=C(C1CCC(F)(F)CC1)N1[C@@H]2CC[C@H]1C[C@H](n1cnc(-c3ccc(F)cc3F)c1)C2 [Example 447],268
5,CC(C)(F)C(=O)N[C@H]1CC[C@@H](n2cnc(-c3ccc(F)c(F)c3)c2)CC1 [Example 310],227
6,O=C(NC1CCC(F)(F)CC1)N1CCC(n2cnc(-c3cccc(F)c3)c2)CC1 [Example 32],993
7,CC(C)(F)C(=O)N[C@H]1CC[C@@H](n2cnc(-c3cccc(F)c3F)c2)CC1 [Example 299],893
8,O=C(NC1CCCC1)N1CCC(n2cnc(-c3cccs3)c2)CC1 [Example 121],201
9,O=C(NC1CCCCC1)N1CCC(n2cnc(-c3ccc4c(c3)CCO4)c2)CC1 [Example 43],250
10,CC(C)(F)C(=O)N[C@H]1CC[C@@H](n2cnc(-c3ccc(OC(F)(F)F)cc3F)c2C#N)CC1 [Example 347],130
11,N#Cc1c(-c2cccc(F)c2F)ncn1C1CCN(C(=O)C2CCC(F)(F)CC2)CC1 [Example 272],138
12,O=C(NC1CCOCC1)[C@H]1CC[C@@H](n2cnc(-c3cccc(F)c3F)c2Cl)CC1 [Example 371],962
13,N#Cc1c(-c2ccccc2)ncn1[C@H]1CC[C@@H](NC(=O)C2CC(F)(F)C2)CC1 [Example 203],641
14,O=C(NC1CCCCCC1)N1CCC(n2cnc(-c3cccc(F)c3)c2)CC1 [Example 45],260
15,O=C(C1CCC(F)(F)CC1)N1[C@@H]2CC[C@H]1C[C@@H](n1cnc(-c3cc(F)ccc3F)c1Cl)C2 [Example 437],533
16,O=C(NC1CCCCC1)N1CCC(n2cnc(-c3ccccn3)c2)CC1 [Example 132],151
17,O=C(NC1CCOCC1)[C@H]1CC[C@@H](n2cnc(-c3ccccc3F)c2Cl)CC1 [Example 360],598
18,O=C(NC1CCOCC1)N1[C@@H]2CC[C@H]1C[C@@H](n1cnc(-c3cc(F)ccc3F)c1Cl)C2 [Example 397],522

# Results, then the compound that gave them:
row,activity at 10 µM [%],Compound
1,253,O=C(c1ccc(F)cn1)N1CCC(n2cnc(-c3ccc(Cl)cc3)c2)CC1 [Example 141]
2,139,N#Cc1c(-c2ccc(F)c(F)c2)ncn1C1CCN(C(=O)C2CCC(F)(F)CC2)CC1 [Example 273]
3,254,COc1cc(-c2ncn([C@H]3CC[C@@H](NC(=O)C(C)(C)F)CC3)c2Cl)ccc1F [Example 186]
4,127,O=C(c1ccc(F)cn1)N1CCC(n2cnc(-c3ccc(F)c(F)c3)c2)CC1 [Example 140]
5,201,O=C(NC1CCCCC1)N1CCC(n2cnc(-c3ccccc3)c2CO)CC1 [Example 110]
6,779,COc1ccc(-c2ncn(C3CCN(C(=O)NC4CCCC4)CC3)c2Cl)cc1 [Example 74]
7,319,O=C(NC1CCCC1)N1CCC(n2cnc(-c3cccc(F)c3)c2)CC1 [Example 30]
8,899,O=C(NC1CCOCC1)N1CCC(n2cnc(-c3cccc(F)c3)c2Cl)CC1 [Example 253]
9,800,CC(C)(C)C(=O)N[C@H]1CC[C@@H](n2cnc(-c3ccc(OC(F)(F)F)cc3)c2Cl)CC1 [Example 321]
10,596,O=C(NC1CCCCC1)N1CCC(n2cnc(-c3ccc(F)cc3)c2)CC1 [Example 15]
11,236,N#Cc1c(-c2ccc(C(F)(F)F)cc2)ncn1C1CCN(C(=O)C2CCC(F)(F)CC2)CC1 [Example 157]
12,397,CC(C)(F)C(=O)N[C@H]1CC[C@@H](n2cnc(-c3cccc(F)c3)c2Cl)CC1 [Example 175]
13,700,COc1ccc(-c2ncn(C3CCN(C(=O)C4CCC(F)(F)CC4)CC3)c2Cl)cc1 [Example 148]
14,569,N#Cc1c(-c2ccccc2F)ncn1C1CCN(C(=O)C2CC(F)(F)C2)CC1 [Example 270]
15,233,CC(C)(F)C(=O)N[C@H]1CC[C@@H](n2cnc(-c3cc(F)ccc3F)c2C#N)CC1 [Example 341]
16,221,CC(C)(C)C(=O)N[C@H]1CC[C@@H](n2cnc(-c3ccccc3)c2Cl)CC1 [Example 167]
17,161,Cc1ccccc1-c1cn(C2CCN(C(=O)Nc3ccccc3F)CC2)cn1 [Example 13]
18,641,O=C(N[C@H]1CC[C@@H](n2cnc(-c3ccc(F)cc3)c2Cl)CC1)C1CCC1 [Example 181]
19,692,N#Cc1c(-c2ccc(Cl)cc2)ncn1C1CCN(C(=O)C2CCC(F)(F)CC2)CC1 [Example 159]
20,205,COC1CCC(NC(=O)N2CCC(n3cnc(-c4ccc(C(F)(F)F)cc4)c3)CC2)CC1 (centres unmarked) [Example 52]
21,137,O=C(C1CCOCC1)N1CCC(n2cnc(-c3cccc(F)c3)c2Cl)CC1 [Example 150]
22,643,CC(C)(F)C(=O)N[C@H]1CC[C@@H](n2cnc(-c3cc(F)ccc3F)c2Cl)CC1 [Example 329]
23,153,CC(C)(C)NC(=O)N1CCC(n2cnc(-c3ccccc3)c2CO)CC1 [Example 111]
24,439,Cc1c(-c2ccc(F)cc2)ncn1C1CCN(C(=O)NC(C)(C)C)CC1 [Example 257]

# Same assay, conditions: comparison across Tables 18 to 25
row,PAM activity for α7 nAChR (in words),Compound
1,stronger PAM activity than others,O=C(NC1CCC(F)(F)CC1)N1CCC(n2cnc(-c3ccc(Cl)cc3)c2)CC1 [Example 22]
2,stronger PAM activity than others,O=C(NC1CCCCC1)N1CCC(n2cnc(-c3ccccc3)c2Cl)CC1 [Example 73]
3,stronger PAM activity than others,N#Cc1c(-c2ccccc2)ncn1C1CCN(C(=O)NC2CCC(F)(F)CC2)CC1 [Example 99]
4,stronger PAM activity than others,O=C(NC1CCOCC1)[C@H]1CC[C@@H](n2cnc(-c3cccc(Cl)c3)c2Cl)CC1 [Example 362]
